# Test results: the supplement of paper PMC10307832
# Assays:
# Experiment in all cases: relative viability (nuclei count vs DMSO), 5 days (fraction); higher = more cells survive
# [1] = tested on: NCI-H2405
# Outline: (§1)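 Cells from lung cancer lines were seeded into 1536-well plates and, one day later, dosed by pin tool. Treatments were either a single drug or a fixed dose of an anchor drug with five library-drug doses (not always all listed) in √10 steps. After 5 days, nuclei were stained in a one-step fixation (final 0.05% Triton X-100, 1% formaldehyde, 1 ug/ml Hoechst) and counted on 4× images, and relative viability is the treated-to-vehicle nuclei ratio, as the median of duplicate plates.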
# [2] = tested on: A-427
# Outline: as §1
# [3] = tested on: NCI-H2023
# Outline: as §1
# [4] = tested on: EMC-BAC-2
# Outline: as §1
# [5] = tested on: HCC-78
# Outline: as §1
# [6] = tested on: NCI-H1993
# Outline: as §1
# [7] = tested on: NCI-H838
# Outline: as §1
# [8] = tested on: COR-L23
# Outline: as §1
# [9] = tested on: HCC-15
# Outline: as §1
# [10] = tested on: NCI-H23
# Outline: as §1
# [11] = tested on: LC-2-ad
# Outline: as §1
# [12] = tested on: ChaGo-K-1
# Outline: as §1
# [13] = tested on: SK-LU-1
# Outline: as §1
# [14] = tested on: HCC-366
# Outline: as §1
# [15] = tested on: HARA
# Outline: as §1
# [16] = tested on: NCI-H2009
# Outline: as §1
# [17] = tested on: NCI-H1944
# Outline: as §1
# [18] = tested on: NCI-H1734
# Outline: as §1
# [19] = tested on: ABC-1
# Outline: as §1
# [20] = tested on: UMC-11
# Outline: as §1
# [21] = tested on: NCI-H1793
# Outline: as §1
# [22] = tested on: NCI-H2126
# Outline: as §1
structure (smiles),measurement,setting,value
NC(=O)Nc1cc(-c2cccc(F)c2)sc1C(=O)N[C@H]1CCCNC1 [AZD7762] + Nc1ncn([C@H]2C[C@H](O)[C@@H](CO)O2)c(=O)n1 [Decitabine] (partner 2 µM),relative viability,[1]; first compound 0.01 µM,0.806
same,relative viability,[1]; first compound 0.03162 µM,0.777
same,relative viability,[1]; first compound 0.1 µM,0.808
same,relative viability,[1]; first compound 0.3162 µM,0.765
same,relative viability,[1]; first compound 1 µM,0.487
same,relative viability,[2]; first compound 0.01 µM,0.582
same,relative viability,[2]; first compound 0.03162 µM,0.648
same,relative viability,[2]; first compound 0.1 µM,0.633
same,relative viability,[2]; first compound 0.3162 µM,0.554
same,relative viability,[2]; first compound 1 µM,0.314
same,relative viability,[3]; first compound 0.01 µM,0.249
same,relative viability,[3]; first compound 0.03162 µM,0.25
same,relative viability,[3]; first compound 0.1 µM,0.179
same,relative viability,[3]; first compound 0.3162 µM,0.121
same,relative viability,[3]; first compound 1 µM,0.0986
same,relative viability,[4]; first compound 0.01 µM,1.03
same,relative viability,[4]; first compound 0.03162 µM,1.01
same,relative viability,[4]; first compound 0.1 µM,1.09
same,relative viability,[4]; first compound 0.3162 µM,1.13
same,relative viability,[4]; first compound 1 µM,0.933
same,relative viability,[5]; first compound 0.01 µM,0.707
same,relative viability,[5]; first compound 0.03162 µM,0.901
same,relative viability,[5]; first compound 0.1 µM,0.824
same,relative viability,[5]; first compound 0.3162 µM,0.904
same,relative viability,[5]; first compound 1 µM,0.622
same,relative viability,[6]; first compound 0.01 µM,0.626
same,relative viability,[6]; first compound 0.03162 µM,0.606
same,relative viability,[6]; first compound 0.1 µM,0.657
same,relative viability,[6]; first compound 0.3162 µM,0.597
same,relative viability,[6]; first compound 1 µM,0.638
same,relative viability,[7]; first compound 0.01 µM,0.661
same,relative viability,[7]; first compound 0.03162 µM,0.568
same,relative viability,[7]; first compound 0.1 µM,0.531
same,relative viability,[7]; first compound 0.3162 µM,0.454
same,relative viability,[7]; first compound 1 µM,0.283
same,relative viability,[8]; first compound 0.01 µM,0.485
same,relative viability,[8]; first compound 0.03162 µM,0.535
same,relative viability,[8]; first compound 0.1 µM,0.563
same,relative viability,[8]; first compound 0.3162 µM,0.35
same,relative viability,[8]; first compound 1 µM,0.166
same,relative viability,[9]; first compound 0.01 µM,0.565
same,relative viability,[9]; first compound 0.03162 µM,0.587
same,relative viability,[9]; first compound 0.1 µM,0.622
same,relative viability,[9]; first compound 0.3162 µM,0.553
same,relative viability,[9]; first compound 1 µM,0.589
same,relative viability,[10]; first compound 0.01 µM,0.329
same,relative viability,[10]; first compound 0.03162 µM,0.376
same,relative viability,[10]; first compound 0.1 µM,0.296
same,relative viability,[10]; first compound 0.3162 µM,0.331
same,relative viability,[10]; first compound 1 µM,0.284
same,relative viability,[11]; first compound 0.01 µM,0.853
same,relative viability,[11]; first compound 0.03162 µM,0.901
same,relative viability,[11]; first compound 0.1 µM,0.796
same,relative viability,[11]; first compound 0.3162 µM,0.649
same,relative viability,[11]; first compound 1 µM,0.682
same,relative viability,[12]; first compound 0.01 µM,0.52
same,relative viability,[12]; first compound 0.03162 µM,0.553
same,relative viability,[12]; first compound 0.1 µM,0.565
same,relative viability,[12]; first compound 0.3162 µM,0.555
same,relative viability,[12]; first compound 1 µM,0.597
same,relative viability,[13]; first compound 0.01 µM,0.609
same,relative viability,[13]; first compound 0.03162 µM,0.782
same,relative viability,[13]; first compound 0.1 µM,0.49
same,relative viability,[13]; first compound 0.3162 µM,0.281
same,relative viability,[13]; first compound 1 µM,0.204
same,relative viability,[14]; first compound 0.01 µM,0.332
same,relative viability,[14]; first compound 0.03162 µM,0.407
same,relative viability,[14]; first compound 0.1 µM,0.337
same,relative viability,[14]; first compound 0.3162 µM,0.309
same,relative viability,[14]; first compound 1 µM,0.154
same,relative viability,[15]; first compound 0.01 µM,0.633
same,relative viability,[15]; first compound 0.03162 µM,0.507
same,relative viability,[15]; first compound 0.1 µM,0.66
same,relative viability,[15]; first compound 0.3162 µM,0.539
same,relative viability,[15]; first compound 1 µM,0.211
same,relative viability,[16]; first compound 0.01 µM,0.468
same,relative viability,[16]; first compound 0.03162 µM,0.417
same,relative viability,[16]; first compound 0.1 µM,0.373
same,relative viability,[16]; first compound 0.3162 µM,0.378
same,relative viability,[16]; first compound 1 µM,0.3
same,relative viability,[17]; first compound 0.01 µM,0.46
same,relative viability,[17]; first compound 0.03162 µM,0.494
same,relative viability,[17]; first compound 0.1 µM,0.442
same,relative viability,[17]; first compound 0.3162 µM,0.497
same,relative viability,[17]; first compound 1 µM,0.44
same,relative viability,[18]; first compound 0.01 µM,0.567
same,relative viability,[18]; first compound 0.03162 µM,0.581
same,relative viability,[18]; first compound 0.1 µM,0.51
same,relative viability,[18]; first compound 0.3162 µM,0.517
same,relative viability,[18]; first compound 1 µM,0.39
same,relative viability,[19]; first compound 0.01 µM,1.07
same,relative viability,[19]; first compound 0.03162 µM,1.11
same,relative viability,[19]; first compound 0.1 µM,0.989
same,relative viability,[19]; first compound 0.3162 µM,0.909
same,relative viability,[19]; first compound 1 µM,0.617
same,relative viability,[20]; first compound 0.01 µM,0.728
same,relative viability,[20]; first compound 0.03162 µM,0.591
same,relative viability,[20]; first compound 0.1 µM,0.598
same,relative viability,[20]; first compound 0.3162 µM,0.479
same,relative viability,[20]; first compound 1 µM,0.305
same,relative viability,[21]; first compound 0.01 µM,0.437
same,relative viability,[21]; first compound 0.03162 µM,0.551
same,relative viability,[21]; first compound 0.1 µM,0.689
same,relative viability,[21]; first compound 0.3162 µM,1.28
same,relative viability,[21]; first compound 1 µM,0.39
same,relative viability,[22]; first compound 0.01 µM,0.562
same,relative viability,[22]; first compound 0.03162 µM,0.628
same,relative viability,[22]; first compound 0.1 µM,0.656
same,relative viability,[22]; first compound 0.3162 µM,0.789
same,relative viability,[22]; first compound 1 µM,0.741
